# From patent US9216991B2 (Ares Trading S.A., priority 2012, dated 2015)
# Biological target: T1, IRAK4 (Homo sapiens, UniProt Q9NWZ3)
# T1 construct: His (N); TEV cleavage site (N)
# T1 sequence (Q9NWZ3 1-460): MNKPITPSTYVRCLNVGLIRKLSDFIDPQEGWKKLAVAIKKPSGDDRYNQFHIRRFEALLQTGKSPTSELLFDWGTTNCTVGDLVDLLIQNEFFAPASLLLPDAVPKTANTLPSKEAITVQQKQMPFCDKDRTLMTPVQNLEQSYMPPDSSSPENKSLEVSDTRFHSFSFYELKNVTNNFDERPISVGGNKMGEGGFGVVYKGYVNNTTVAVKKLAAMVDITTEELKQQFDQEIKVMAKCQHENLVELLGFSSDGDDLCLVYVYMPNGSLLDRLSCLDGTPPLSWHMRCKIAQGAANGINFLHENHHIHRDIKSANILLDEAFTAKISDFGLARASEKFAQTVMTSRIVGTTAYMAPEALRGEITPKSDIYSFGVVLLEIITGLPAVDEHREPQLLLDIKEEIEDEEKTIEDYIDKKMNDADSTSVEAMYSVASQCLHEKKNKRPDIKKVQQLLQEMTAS
# Assay: IRAK4 Enzymatic Assay
# Format: biochemical
# Details: His-TEV-IRAK4 20 ng/well, ATP 2 μM, STK1-biotin peptide 300 nM, 3 hours at 30° C., FlashPlate radioactivity
# Experimental: IRAK4 is a human purified recombinant enzyme (His-TEV-IRAK1 (194-712)
# IRAK4 hydrolyses ATP, autophosphorylates and phosphorylates a Serine/Threonine generic peptidic substrate (STK: 61ST1BLC from CisBio International based in Bagnols/Cèze FR).
# Measurement of IRAK-4 inhibition is performed in streptavidin coated 384 well FlashPlate (PerkinElmer #SMP410A). His-TEV-IRAK4 (20 ng/well), ATP (2 μM, [^33P]ATP 0.25 μCi/well), STK1-biotin peptide (300 nM) and compounds in DMSO (range of concentrations from 20 μM to 1nM) or controls (2% DMSO) are incubated for 3 hours at 30° C. in assay buffer: Hepes pH7.0 50 mM, Fatty acid-free BSA 0.1%, Dithiothreitol DTT 2 mM, MgCl2 10 mM, EGTA 0.5 mM, Tween-20 0.01%, MnCl2 5 mM.
# Kinase reaction is stopped by addition of EDTA. Supernatant is discarded, plates are washed three times with 150 mM NaCl and radioactivity is then measured in a Microbeta Trilux reader.
row,IC50 [µM],SMILES
1,< 0.1,"Cn1cc(-c2cccc(-c3ncc(-c4cnn([C@H]5CC[C@H](C(=O)NC6CC6)CC5)c4)cn3)c2)cn1 [Example 170, Trans-4-(4-{2-[3-(1-Methyl-1H-pyrazol-4-yl)-phenyl]-pyrimidin-5-yl}-pyrazol-1-yl)-cyclohexanecarboxylic acid cyclopropylamide]"
2,0.1 to 1,"CN1CC(C(=O)N2CCC(n3cc(-c4cnc(-c5cccc(-c6cnn(C)c6)c5)nc4)cn3)CC2)CC1=O (centres unmarked) [Example 113, 1-Methyl-4-[4-(4-{2-[3-(1-methyl-1H-pyrazol-4-yl)-phenyl]-pyrimidin-5-yl}-pyrazol-1-yl)-piperidine-1-carbonyl]-pyrrolidin-2-one]"
3,< 0.1,"Cn1cc(-c2cccc(-c3ncc(-c4cnn([C@H]5CC[C@H](OCC(C)(C)O)CC5)c4)cn3)c2)cn1 [Example 224, trans-2-Methyl-1-[4-(4-{2-[3-(1-methyl-1H-pyrazol-4-yl)-phenyl]-pyrimidin-5-yl}-pyrazol-1-yl)-cyclohexyloxy]-propan-2-ol]"
4,0.1 to 1,"CC(=O)Cn1cc(-c2cnc(-c3cccc(-c4cnn(C)c4)c3)nc2)cn1 [Example 44, 1-(4-{2-[3-(1-Methyl-1H-pyrazol-4-yl)-phenyl]-pyrimidin-5-yl}-pyrazol-1-yl)-propan-2-one]"
5,1 to 5,"CC(C(=O)N1CCOCC1)n1cc(-c2cnc(-c3cccc(-c4cnn(C)c4)c3)nc2)cn1 (centres unmarked) [Example 103, 2-(4-{2-[3-(1-Methyl-1H-pyrazol-4-yl)-phenyl]-pyrimidin-5-yl}-pyrazol-1-yl)-1-morpholin-4-yl-propan-1-one]"
6,0.1 to 1,"Cn1cc(-c2cccc(-c3ncc(-c4cnn(C5CCN(C(=O)C6CCOCC6)CC5)c4)cn3)c2)cn1 [Example 107, [4-(4-{2-[3-(1-Methyl-1H-pyrazol-4-yl)-phenyl]-pyrimidin-5-yl}-pyrazol-1-yl)-piperidin-1-yl]-(tetrahydro-pyran-4-yl)-methanone]"
7,1 to 5,"O=C(Cn1cc(-c2cnc(-c3cccc(-c4c[nH]nn4)c3)nc2)cn1)N1CCOCC1 [Example 79, 1-Morpholin-4-yl-2-(4-{2-[3-(1H-[1,2,3]triazol-4-yl)-phenyl]-pyrimidin-5-yl}-pyrazol-1-yl)-ethanone]"
8,0.1 to 1,"Cn1cc(-c2cccc(-c3ncc(-c4cnn(C5CCN(c6ccccc6F)CC5)c4)cn3)c2)cn1 [Example 175, 5-{1-[1-(2-Fluoro-phenyl)-piperidin-4-yl]-1H-pyrazol-4-yl}-2-[3-(1-methyl-1H-pyrazol-4-yl)-phenyl]-pyrimidine]"
9,0.1 to 1,Cn1cc(-c2cccc(-c3ncc(-c4cnn([C@@H]5CCNC[C@@H]5F)c4)cn3)c2)cn1 (relative stereo) [Example 265]
10,< 0.1,"CC(=O)N1CCC(n2cc(-c3cnc(-c4cccc(-c5cnn(C)c5)c4)nc3)cn2)CC1 [Example 5, 1-[4-(4-{2-[3-(1-Methyl-1H-pyrazol-4-yl)-phenyl]-pyrimidin-5-yl}-pyrazol-1-yl)-piperidin-1-yl]-ethanone]"
11,1 to 5,Cn1cc(-c2cccc(-c3ncc(-c4cnn(CC(=O)O)c4)cn3)c2)cn1 [Example 8]
12,< 0.1,"C[C@H]1C[C@@H](n2cc(-c3cnc(-c4cccc(-c5cnn(C)c5)c4)nc3)cn2)CCN1 [Example 246, 5-[1-((2S,4S)-2-Methyl-piperidin-4-yl)-1H-pyrazol-4-yl]-2-[3-(1-methyl-1H-pyrazol-4-yl)-phenyl]-pyrimidine]"
13,1 to 5,"CN(C)C(=O)[C@H]1C[C@H]2COC[C@@H](C1)[C@@H]2n1cc(-c2cnc(-c3cccc(-c4cnn(C)c4)c3)nc2)cn1 [Example 194, cis-cis-9-(4-{2-[3-(1-Methyl-1H-pyrazol-4-yl)-phenyl]-pyrimidin-5-yl}-pyrazol-1-yl)-3-oxa-bicyclo[3.3.1]nonane-7-carboxylic acid dimethylamide]"
14,0.1 to 1,"CN(C)C(=O)[C@H]1CC[C@@H](n2cc(-c3cnc(-c4cccc(-c5cnn(C)c5)c4)nc3)cn2)CC1 [Example 135, Cis-4-(4-{2-[3-(1-Methyl-1H-pyrazol-4-yl)-phenyl]-pyrimidin-5-yl}-pyrazol-1-yl)-cyclohexanecarboxylic acid dimethylamide]"
15,0.1 to 1,"Cn1cc(-c2cccc(-c3ncc(-c4cnn([C@H]5C=C[C@@H](O)C5)c4)cn3)c2)cn1 [Example 231, (1S,4R)-4-[4-[2-[3-(1-methylpyrazol-4-yl)phenyl]pyrimidin-5-yl]pyrazol-1-yl]cyclopent-2-en-1-ol]"
16,0.1 to 1,"C[C@@H]1C[C@H](n2cc(-c3cnc(-c4cccc(-c5cnn(C)c5)c4)nc3)cn2)CCN1 [Example 243, 5-[1-((2R,4R)-2-Methyl-piperidin-4-yl)-1H-pyrazol-4-yl]-2-[3-(1-methyl-1H-pyrazol-4-yl)-phenyl]-pyrimidine formic acid]"
17,0.1 to 1,"Cn1cc(-c2cccc(-c3ncc(-c4cnn(C5CCN(C6CCOCC6F)CC5)c4)cn3)c2)cn1 (stereo not drawn) [Example 95, Cis-5-{1-[1-(3-Fluoro-tetrahydro-pyran-4-yl)-piperidin-4-yl]-1H-pyrazol-4-yl}-2-[3-(1-methyl-1H-pyrazol-4-yl)-phenyl]-pyrimidine]"
18,1 to 5,"Cn1cc(-c2cccc(-c3ncc(-c4cnn(CC(=O)N5CCCCC5)c4)cn3)c2)cn1 [Example 25, 2-(4-{2-[3-(1-Methyl-1H-pyrazol-4-yl)-phenyl]-pyrimidin-5-yl}-pyrazol-1-yl)-1-piperidin-1-yl-ethanone]"
19,0.1 to 1,"CC(=O)N1CC[C@@H](n2cc(-c3cnc(-c4cccc(-c5cnn(C)c5)c4)nc3)cn2)[C@H](O)C1 (single isomer, unassigned) [Example 201]"
20,0.1 to 1,"Cc1nn(C2CCC(O)CC2)cc1-c1cnc(-c2cccc(-c3cnn(C)c3)c2)nc1 (centres unmarked) [Example 291, 4-(3-Methyl-4-{2-[3-(1-methyl-1H-pyrazol-4-yl)-phenyl]-pyrimidin-5-yl}-pyrazol-1-yl)-cyclohexanol]"
21,0.1 to 1,"Cn1cc(-c2cccc(-c3ncc(-c4cnn(CCC5CCOC5=O)c4)cn3)c2)cn1 (centres unmarked) [Example 132, 3-[2-(4-{2-[3-(1-Methyl-1H-pyrazol-4-yl)-phenyl]-pyrimidin-5-yl}-pyrazol-1-yl)-ethyl]dihydro-furan-2-one]"
22,< 0.1,"CO[C@H]1CCN(C(=O)[C@H]2CC[C@H](n3cc(-c4cnc(-c5cccc(-c6cnn(C)c6)c5)nc4)cn3)CC2)C1 [Example 191, Trans-((S)-3-Methoxy-pyrrolidin-1-yl)-[4-(4-{2-[3-(1-methyl-1H-pyrazol-4-yl)-phenyl]-pyrimidin-5-yl}-pyrazol-1-yl)-cyclohexyl]-methanone]"
23,1 to 5,"Cn1cc(-c2cccc(-c3ncc(-c4cn(C5CCOCC5)nc4C(N)=O)cn3)c2)cn1 [Example 137, 4-{2-[3-(1-Methyl-1H-pyrazol-4-yl)-phenyl]-pyrimidin-5-yl}-1-(tetrahydro-pyran-4-yl)-1H-pyrazole-3-carboxylic acid amide]"
24,< 0.1,"Cc1cc(-c2cccc(-c3ncc(-c4cnn([C@H]5CC[C@H](CO)CC5)c4)cn3)c2)cnn1 [Example 256, Trans-[4-(4-{2-[3-(6-Methyl-pyridazin-4-yl)-phenyl]-pyrimidin-5-yl}-pyrazol-1-yl)-cyclohexyl]-methanol]"
25,< 0.1,"CCNC(=O)[C@H]1CC[C@H](n2cc(-c3cnc(-c4cccc(-c5cnn(C)c5)c4)nc3)cn2)CC1 [Example 197, Trans-4-(4-{2-[3-(1-Methyl-1H-pyrazol-4-yl)-phenyl]-pyrimidin-5-yl}-pyrazol-1-yl)-cyclohexanecarboxylic acid ethylamide]"
26,0.1 to 1,"Cn1cc(-c2cccc(-c3ncc(-c4cnn(C5C[C@H]6CC[C@@H](C5)N6CC(O)C(F)(F)F)c4)cn3)c2)cn1 (stereo partly drawn) [Example 118, 1,1,1-Trifluoro-3-[(1R,5S)-3-(4-{2-[3-(1-methyl-1H-pyrazol-4-yl)-phenyl]-pyrimidin-5-yl}-pyrazol-1-yl)-8-aza-bicyclo[3.2.1]oct-8-yl]-propan-2-ol]"
27,0.1 to 1,"Cn1cc(-c2ccc(F)c(-c3ncc(-c4cnn([C@H]5CC[C@H](O)CC5)c4)cn3)c2)cn1 [Example 292, 4-(4-{2-[2-Fluoro-5-(1-methyl-1H-pyrazol-4-yl)-phenyl]-pyrimidin-5-yl}-pyrazol-1-yl)-cyclohexanol]"
28,1 to 5,"O=C(Cn1cc(-c2cnc(-c3cccc(-c4ccncc4)c3)nc2)cn1)N1CCCC1 [Example 43, 2-{4-[2-(3-Pyridin-4-yl-phenyl)-pyrimidin-5-yl]-pyrazol-1-yl}-1-pyrrolidin-1-yl-ethanone]"
29,0.1 to 1,"CCOC1CC(N2CCC(n3cc(-c4cnc(-c5cccc(-c6cnn(C)c6)c5)nc4)cn3)CC2)C1(C)C (centres unmarked) [Example 112, 5-{1-[1-(3-Ethoxy-2,2-dimethyl-cyclobutyl)-piperidin-4-yl]-1H-pyrazol-4-yl}-2-[3-(1-methyl-1H-pyrazol-4-yl)-phenyl]-pyrimidine]"
